Measured values taken from the NIST ThermoML archive (doi:10.1021/je100369a).
± gives the expanded uncertainty stated by the source.

What was measured:
[1] = mn = molality of the nth substance listed, in mol/kg; settings: 101 kPa, Liquid
[2] = refractive index (Na D-line) (dimensionless); settings: 101.33 kPa, Liquid, Standard Abbe refractometry
[3] = 101.33 kPa, Liquid

In the case of `Oc1ccccc1C=NCCN=Cc1ccccc1O` [2,2'-[ethylenebis(nitrilomethylidyne)]diphenol] + ClC(Cl)Cl, the mass density ([1]; 283.15 K, m1 = 0.0099) is reported as 1495.46 ± 1.1 kg/m3, the mass density ([1]; 283.15 K, m1 = 0.03) is reported as 1493.53 ± 1.1 kg/m3 and the mass density ([1]; 283.15 K, m1 = 0.0498) is reported as 1491.63 ± 1.1 kg/m3. For the same compound, the mass density ([1]; 283.15 K, m1 = 0.0702) was 1489.69 ± 1.1 kg/m3, the mass density ([1]; 283.15 K, m1 = 0.0904) was 1487.79 ± 1.1 kg/m3 and the mass density ([1]; 283.15 K, m1 = 0.1102) was 1485.95 ± 1.1 kg/m3. The mass density ([1]; 283.15 K, m1 = 0.1336) was 1483.73 ± 1.1 kg/m3, the mass density ([1]; 283.15 K, m1 = 0.1501) was 1482.28 ± 1.1 kg/m3 and the mass density ([1]; 283.15 K, m1 = 0.19) was 1478.69 ± 1.2 kg/m3. The mass density ([1]; 288.15 K, m1 = 0.0099) was 1486.15 ± 1.1 kg/m3, the mass density ([1]; 288.15 K, m1 = 0.03) was 1484.27 ± 1.1 kg/m3 and the mass density ([1]; 288.15 K, m1 = 0.0498) was 1482.44 ± 1.1 kg/m3. The mass density ([1]; 288.15 K, m1 = 0.0702) was 1480.56 ± 1.1 kg/m3, the mass density ([1]; 288.15 K, m1 = 0.0904) was 1478.71 ± 1.1 kg/m3 and the mass density ([1]; 288.15 K, m1 = 0.1102) was 1476.92 ± 1.1 kg/m3. It also gave a mass density ([1]; 288.15 K, m1 = 0.1336) of 1474.75 ± 1.1 kg/m3, a mass density ([1]; 288.15 K, m1 = 0.1501) of 1473.37 ± 1.1 kg/m3 and a mass density ([1]; 288.15 K, m1 = 0.19) of 1469.85 ± 1.1 kg/m3. It also gave a mass density ([1]; 293.15 K, m1 = 0.0099) of 1476.77 ± 1 kg/m3, a mass density ([1]; 293.15 K, m1 = 0.03) of 1474.97 ± 1 kg/m3 and a mass density ([1]; 293.15 K, m1 = 0.0498) of 1473.19 ± 1.1 kg/m3. It also gave a mass density ([1]; 293.15 K, m1 = 0.0702) of 1471.36 ± 1.1 kg/m3, a mass density ([1]; 293.15 K, m1 = 0.0904) of 1469.56 ± 1.1 kg/m3 and a mass density ([1]; 293.15 K, m1 = 0.1102) of 1467.84 ± 1.1 kg/m3. The mass density ([1]; 293.15 K, m1 = 0.1336) was 1465.71 ± 1.1 kg/m3, the mass density ([1]; 293.15 K, m1 = 0.1501) was 1464.38 ± 1.1 kg/m3 and the mass density ([1]; 293.15 K, m1 = 0.19) was 1460.93 ± 1.1 kg/m3. It also gave a mass density ([1]; 298.15 K, m1 = 0.0099) of 1467.41 ± 1 kg/m3, a mass density ([1]; 298.15 K, m1 = 0.03) of 1465.66 ± 1 kg/m3 and a mass density ([1]; 298.15 K, m1 = 0.0498) of 1463.95 ± 1 kg/m3. The mass density ([1]; 298.15 K, m1 = 0.0702) was 1462.15 ± 1.1 kg/m3, the mass density ([1]; 298.15 K, m1 = 0.0904) was 1460.41 ± 1.1 kg/m3 and the mass density ([1]; 298.15 K, m1 = 0.1102) was 1458.74 ± 1.1 kg/m3. It also gave a mass density ([1]; 298.15 K, m1 = 0.1336) of 1456.68 ± 1.1 kg/m3, a mass density ([1]; 298.15 K, m1 = 0.1501) of 1455.37 ± 1.1 kg/m3 and a mass density ([1]; 298.15 K, m1 = 0.19) of 1452.05 ± 1.1 kg/m3.

For `Oc1ccccc1C=NCCN=Cc1ccccc1O` [2,2'-[ethylenebis(nitrilomethylidyne)]diphenol] + ClCCl, the mass density ([1]; 283.15 K, m1 = 0.0306) was 1342.32 ± 0.68 kg/m3, the mass density ([1]; 283.15 K, m1 = 0.049) was 1341.5 ± 0.69 kg/m3 and the mass density ([1]; 283.15 K, m1 = 0.0703) was 1340.58 ± 0.69 kg/m3. The mass density ([1]; 283.15 K, m1 = 0.0903) was 1339.65 ± 0.69 kg/m3, the mass density ([1]; 283.15 K, m1 = 0.1103) was 1338.77 ± 0.7 kg/m3 and the mass density ([1]; 283.15 K, m1 = 0.1301) was 1337.88 ± 0.7 kg/m3. The mass density ([1]; 283.15 K, m1 = 0.15) was 1337.01 ± 0.71 kg/m3, the mass density ([1]; 283.15 K, m1 = 0.1702) was 1336.07 ± 0.71 kg/m3 and the mass density ([1]; 283.15 K, m1 = 0.1911) was 1335.14 ± 0.72 kg/m3. For the same compound, the mass density ([1]; 288.15 K, m1 = 0.0306) was 1333.32 ± 0.67 kg/m3, the mass density ([1]; 288.15 K, m1 = 0.049) was 1332.54 ± 0.67 kg/m3 and the mass density ([1]; 288.15 K, m1 = 0.0703) was 1331.67 ± 0.68 kg/m3. The mass density ([1]; 288.15 K, m1 = 0.0903) was 1330.82 ± 0.68 kg/m3, the mass density ([1]; 288.15 K, m1 = 0.1103) was 1329.93 ± 0.68 kg/m3 and the mass density ([1]; 288.15 K, m1 = 0.1301) was 1329.12 ± 0.69 kg/m3. For the same compound, the mass density ([1]; 288.15 K, m1 = 0.15) was 1328.26 ± 0.69 kg/m3, the mass density ([1]; 288.15 K, m1 = 0.1702) was 1327.34 ± 0.7 kg/m3 and the mass density ([1]; 288.15 K, m1 = 0.1911) was 1326.47 ± 0.7 kg/m3. It also gave a mass density ([1]; 293.15 K, m1 = 0.0306) of 1324.26 ± 0.66 kg/m3, a mass density ([1]; 293.15 K, m1 = 0.049) of 1323.56 ± 0.66 kg/m3 and a mass density ([1]; 293.15 K, m1 = 0.0703) of 1322.69 ± 0.66 kg/m3. It also gave a mass density ([1]; 293.15 K, m1 = 0.0903) of 1321.91 ± 0.67 kg/m3, a mass density ([1]; 293.15 K, m1 = 0.1103) of 1321.06 ± 0.67 kg/m3 and a mass density ([1]; 293.15 K, m1 = 0.1301) of 1320.31 ± 0.67 kg/m3. It also gave a mass density ([1]; 293.15 K, m1 = 0.15) of 1319.5 ± 0.68 kg/m3, a mass density ([1]; 293.15 K, m1 = 0.1702) of 1318.65 ± 0.68 kg/m3 and a mass density ([1]; 293.15 K, m1 = 0.1911) of 1317.78 ± 0.69 kg/m3. It also gave a mass density ([1]; 298.15 K, m1 = 0.0306) of 1315.18 ± 0.64 kg/m3, a mass density ([1]; 298.15 K, m1 = 0.049) of 1314.5 ± 0.64 kg/m3 and a mass density ([1]; 298.15 K, m1 = 0.0703) of 1313.71 ± 0.65 kg/m3. For the same compound, the mass density ([1]; 298.15 K, m1 = 0.0903) was 1312.95 ± 0.65 kg/m3, the mass density ([1]; 298.15 K, m1 = 0.1103) was 1312.16 ± 0.66 kg/m3 and the mass density ([1]; 298.15 K, m1 = 0.1301) was 1311.43 ± 0.66 kg/m3. For the same compound, the mass density ([1]; 298.15 K, m1 = 0.15) was 1310.67 ± 0.66 kg/m3, the mass density ([1]; 298.15 K, m1 = 0.1702) was 1309.84 ± 0.67 kg/m3 and the mass density ([1]; 298.15 K, m1 = 0.1911) was 1309.07 ± 0.68 kg/m3.

`CC(=O)N(C)C` [N,N-dimethylethanamide] gave a refractive index ([2]; 288.15 K) of 1.4382 ± 0.0006, a refractive index ([2]; 298.15 K) of 1.4346 ± 0.0006 and a refractive index ([2]; 308.15 K) of 1.4312 ± 0.0006. It also gave a refractive index ([2]; 318.18 K) of 1.426 ± 0.0007, a mass density ([3]; 288.15 K) of 945.5 ± 0.49 kg/m3 and a mass density ([3]; 298.15 K) of 936.28 ± 0.51 kg/m3. It also gave a mass density ([3]; 308.15 K) of 927.05 ± 0.53 kg/m3 and a mass density ([3]; 318.18 K) of 917.79 ± 0.55 kg/m3.

`ClCCl` [dichloromethane] gave a refractive index ([2]; 283.15 K) of 1.4305 ± 0.0007, a refractive index ([2]; 288.15 K) of 1.4276 ± 0.0007 and a refractive index ([2]; 293.15 K) of 1.4251 ± 0.0007. For the same compound, the refractive index ([2]; 298.15 K) was 1.4219 ± 0.0008, the mass density ([3]; 283.15 K) was 1343.65 ± 0.36 kg/m3 and the mass density ([3]; 288.15 K) was 1334.57 ± 0.35 kg/m3. It also gave a mass density ([3]; 293.15 K) of 1325.43 ± 0.34 kg/m3 and a mass density ([3]; 298.15 K) of 1316.27 ± 0.34 kg/m3.

In the case of `C[S+](C)[O-]` [dimethyl sulfoxide], the refractive index ([2]; 288.15 K) is reported as 1.4793 ± 0.0006, the refractive index ([2]; 298.15 K) is reported as 1.4752 ± 0.0006 and the refractive index ([2]; 308.15 K) is reported as 1.471 ± 0.0006. It also gave a refractive index ([2]; 318.15 K) of 1.467 ± 0.0006, a mass density ([3]; 288.15 K) of 1105.3 ± 0.15 kg/m3 and a mass density ([3]; 298.15 K) of 1095.29 ± 0.15 kg/m3. The mass density ([3]; 308.15 K) was 1085.25 ± 0.14 kg/m3 and the mass density ([3]; 318.15 K) was 1075.21 ± 0.13 kg/m3.

In the case of `CN(C)C=O` [dimethylformamide], the refractive index ([2]; 288.15 K) is reported as 1.431 ± 0.0006, the refractive index ([2]; 298.15 K) is reported as 1.4276 ± 0.0006 and the refractive index ([2]; 308.15 K) is reported as 1.423 ± 0.0007. The refractive index ([2]; 318.15 K) was 1.418 ± 0.0007, the mass density ([3]; 288.15 K) was 953.58 ± 0.48 kg/m3 and the mass density ([3]; 298.15 K) was 944.06 ± 0.5 kg/m3. For the same compound, the mass density ([3]; 308.15 K) was 934.52 ± 0.52 kg/m3 and the mass density ([3]; 318.15 K) was 924.9 ± 0.54 kg/m3.

`ClC(Cl)Cl` [trichloromethane] gave a refractive index ([2]; 283.15 K) of 1.45 ± 0.0007, a refractive index ([2]; 288.15 K) of 1.4471 ± 0.0007 and a refractive index ([2]; 293.15 K) of 1.4439 ± 0.0007. For the same compound, the refractive index ([2]; 298.15 K) was 1.442 ± 0.0006, the mass density ([3]; 283.15 K) was 1496.43 ± 1.1 kg/m3 and the mass density ([3]; 288.15 K) was 1487.09 ± 1.1 kg/m3. It also gave a mass density ([3]; 293.15 K) of 1477.68 ± 1 kg/m3 and a mass density ([3]; 298.15 K) of 1468.28 ± 1 kg/m3.
